Columns and labels:
[1] = tested on: steady-state neuromuscular block induced by vecuronium bromide (Vec); test: Reversal of neuromuscular blockade in vivo, anaesthetized guinea pig, vecuronium; conditions: Vec infusion, 85–90% block, anaesthetized guinea pigs, i.v. reversal agent; mean
Description: (§1) Male Dunkin-Hartley guinea pigs (bodyweight: 600–900 g) were anaesthetized by i.p. administration of 10 mg/kg pentobarbitone and 1000 mg/kg urethane. After tracheotomy, the animals were artificially ventilated using a Harvard small animal ventilator. A catheter was placed into the carotid artery for continuous monitoring of arterial blood pressure and the taking of blood samples for blood gas analysis. Heart rate was derived from the blood pressure signal. The sciatic nerve was stimulated (rectangular pulses of 0.5 ms duration at 10 s (0.1 Hz) intervals at a supramaximal voltage, using a Grass S88 Stimulator) and the force of M. gastrocnemius contractions was measured using a Grass FT03 force-displacement transducer. Contractions, blood pressure and heart rate were recorded on a multichannel Grass 7D recorder. Catheters were placed in both jugular veins. One catheter was used for the continuous infusion of a neuromuscular blocking agent. The infusion rate of the neuromuscular blocking agent was increased until a steady-state block of 85–90% was obtained. The other catheter was used for administration of increasing doses of the reversal agent. During continuous infusion of the neuromuscular blocking agent, single doses of increasing concentration of reversal agent were given. At the end of the experiment, the measured force of muscle contractions was plotted against the concentration of reversal agent, and using regression analysis techniques, the 50% reversal concentration was calculated.

[2] = tested on: steady-state neuromuscular block induced by rocuronium bromide (Roc); test: Reversal of neuromuscular blockade in vivo, anaesthetized guinea pig, rocuronium
Description: as §1
Reversal of neuromuscular block in vivo, induced by rocuronium bromide, was carried out as described in Example 5.

[3] = tested on: neuromuscular block induced by rocuronium in isolated mouse hemidiaphragm; test: Reversal of neuromuscular block in vitro: isolated mouse hemidiaphragm preparation; conditions: for maximum reversal / EC50: rocuronium bromide 3.6 μM in the bath, 95% block; for maximum reversal / EC50 / concentration of chemical chelator at maximum reversal: mouse hemidiaphragm; for EC50: read-out: 50% reversal concentration; for Mouse hemidiaphragm: maximum reversal (%) / concentration of chemical chelator at maximum reversal: 3.1 μM rocuronium; for Reversal of the neuromuscular blocking action of rocuronium (in words): rocuronium-induced block
Description: Hemidiaphragms, with phrenic nerves attached, were removed from euthanized male mice (Institute of Cancer Research; bodyweight: 20–60 g). The preparations were mounted on a tissue holder and placed in a tissue bath filled with a modified Krebs-Henseleit solution (composition: 118 mM NaCl, 30 mM NaHCO3, 5 mM KCl, 1 mM KH2PO4, 1 mM MgSO4, 30 mM glucose and 2.5 mM CaCl2) at 37° C. and bubbled with 95% oxygen and 5% carbondioxide. One end of the preparation was connected with a siliconized silk suture to a Grass FT03 force-displacement transducer. An initial force of 10 mN was applied. The phrenic nerve was placed on a bipolar platinum electrode and was stimulated with rectangular pulses of 0.2 ms duration at 20 s (0.05 Hz) intervals at a supramaximal voltage, using a Grass S88 Stimulator. Contractions were recorded on a four channel Grass 79D recorder.
Increasing amounts of reversal agent were then administered into the bath at intervals of 10 min. The % maximum reversal was established. At the end of the experiment, the measured muscle contractions force was plotted against the concentration of reversal agent, and using regression analysis techniques, the 50% reversal concentration was calculated.
After induction of neuromuscular block by rocuronium, the % maximum reversal produced by the addition of a number of γ-cyclodextrin derivatives (compounds 11–16), a cyclic octasaccharide comprising 4 rhamnosyl-mannopyranosyl units (compound 24), or a number of paracyclophane derivatives (compounds 17–21 and 23) are presented in Table II.
Reversal of neuromuscular block in vitro was carried out using the mouse hemidiaphragm preparation as described in Example 6.

[4] = tested on: steady-state neuromuscular block induced by rapacuronium bromide (Rap; Org 9487); test: Reversal of neuromuscular blockade in vivo, anaesthetized guinea pig, rapacuronium; conditions: Rap infusion, 85–90% block, anaesthetized guinea pigs, i.v. reversal agent; mean
Description: as §1

[5] = tested on: steady-state neuromuscular block induced by suxamethonium chloride (Sux; succinylcholine); test: Reversal of neuromuscular blockade in vivo, anaesthetized guinea pig, suxamethonium; conditions: Sux infusion, 85–90% block, anaesthetized guinea pigs, i.v. reversal agent; mean
Description: as §1

[6] = tested on: steady-state neuromuscular block induced by pancuronium bromide (Pan); test: Reversal of neuromuscular blockade in vivo, anaesthetized guinea pig, pancuronium; conditions: Pan infusion, 85–90% block, anaesthetized guinea pigs, i.v. reversal agent; mean
Description: as §1

[7] = Roc infusion, 85–90% block, anaesthetized guinea pigs, i.v. reversal agent, mean
[8] = rocuronium bromide, anaesthetised guinea pig, as in Example 5

| Molecule | Dose (ED50) producing 50% reversal of steady-state neuromuscular block [1] | Dose (ED50) producing 50% reversal of steady-state neuromuscular block [2, 7] | Mouse hemidiaphragm: maximum reversal (%) [3] | concentration of chemical chelator at maximum reversal [3] | also measured |
| --- | --- | --- | --- | --- | --- |
| 2-hydroxy-3-trimethylammonio propyl-β-CD (DS = 3.5) [Compound 3] | 1400 (1) μmol.kg^−1 | 518 (2) μmol.kg^−1 | – | – | – |
| 2-hydroxypropyl-β-CD [Compound 10] | 1598 (4) μmol.kg^−1 | 33 (3) μmol.kg^−1 | – | – | – |
| O=S(=O)(O)c1cc2c(O)c(c1)Cc1cc(S(=O)(=O)O)cc(c1O)Cc1cc(S(=O)(=O)O)cc(c1O)Cc1cc(S(=O)(=O)O)cc(c1O)Cc1cc(S(=O)(=O)O)cc(c1O)Cc1cc(S(=O)(=O)O)cc(c1O)C2 [4-sulfonic calix[6]arene, 4-Sulfonic calix[6]arene] | – | – | – | – | maximum reversal [3]: 120%; EC50 [3]: 34 µM; Dose (ED50) producing 50% reversal of steady-state neuromuscular block [2, 8]: 5.1 µmol/kg |
| O=S(=O)(O)c1cc2c(O)c(c1)Cc1cc(S(=O)(=O)O)cc(c1O)Cc1cc(S(=O)(=O)O)cc(c1O)Cc1cc(S(=O)(=O)O)cc(c1O)Cc1cc(S(=O)(=O)O)cc(c1O)Cc1cc(S(=O)(=O)O)cc(c1O)Cc1cc(S(=O)(=O)O)cc(c1O)Cc1cc(S(=O)(=O)O)cc(c1O)C2 [4-sulfonic calix[8]arene] | – | – | – | – | maximum reversal [3]: 124%; EC50 [3]: 36 µM; Dose (ED50) producing 50% reversal of steady-state neuromuscular block [2, 8]: 34 µmol/kg |
| OC[C@H]1O[C@@H]2O[C@H]3[C@H](O)[C@@H](O)[C@@H](O[C@H]4[C@H](O)[C@@H](O)[C@@H](O[C@H]5[C@H](O)[C@@H](O)[C@@H](O[C@H]6[C@H](O)[C@@H](O)[C@@H](O[C@H]7[C@H](O)[C@@H](O)[C@@H](O[C@H]1[C@H](O)[C@H]2O)O[C@@H]7CO)O[C@@H]6CO)O[C@@H]5CO)O[C@@H]4CO)O[C@@H]3CO [Compound 1, α-cyclodextrin] | 2610 (1) μmol.kg^−1 | 1575 (2) μmol.kg^−1 | – | – | – |
| O=C(O)c1cc2ccc1OCCCCCOc1ccc(cc1C(=O)O)Cc1ccc(c(C(=O)O)c1)OCCCCCOc1ccc(cc1C(=O)O)C2 [Compound 17, 1,7,21,27-tetraoxa-9,17,29,37-tetracarboxy[7.1.7.1]paracyclophane] | – | – | 11% | 360 µM | – |
| O=C(O)c1cc2ccc1OCc1ccc(cc1)COc1ccc(cc1C(=O)O)Cc1ccc(c(C(=O)O)c1)OCc1ccc(cc1)COc1ccc(cc1C(=O)O)C2 [Compound 18, 1,10,24,33-tetraoxa-12,20,35,43-tetracarboxy-[2.2.1.2.2.1]paracyclophane] | – | – | 61% | 288 µM | Reversal of the neuromuscular blocking action of rocuronium (in words) [3]: efficiently blocked |
| O=C(O)CC(=O)N1CCCCCN(C(=O)CC(=O)O)c2ccc(cc2)Cc2ccc(cc2)N(C(=O)CC(=O)O)CCCCCN(C(=O)CC(=O)O)c2ccc(cc2)Cc2ccc1cc2 [Compound 19, N, N′, N″, N′″-Tetrakis(carboxyacetyl)-1,7, 21, 27-tetraaza[7.1.7.1] paracyclophane] | – | – | 2.4% | 108 µM | – |
| O=C(O)CCCC(=O)N1CCCCCN(C(=O)CCCC(=O)O)c2ccc(cc2)Cc2ccc(cc2)N(C(=O)CCCC(=O)O)CCCCCN(C(=O)CCCC(=O)O)c2ccc(cc2)Cc2ccc1cc2 [Compound 20, N, N′, N″, N′″-Tetrakis(4-carboxybutyryl)-1,7, 21, 27-tetraaza[7.1.7.1] paracyclophane] | – | – | 8.7% | 72 µM | – |
| O=C(O)CCC(=O)N1CCCCCN(C(=O)CCC(=O)O)c2ccc(cc2)Cc2ccc(cc2)N(C(=O)CCC(=O)O)CCCCCN(C(=O)CCC(=O)O)c2ccc(cc2)Cc2ccc1cc2 [Compound 21, N, N′,N″, N′″-Tetrakis(3-carboxypropionyl)-1,7, 21, 27-tetraaza[7.1.7.1]para-cyclophane] | – | – | 0% | 360 µM | – |
| O=C(O)CCC(=O)N1CC2CCC(CC2)CN(C(=O)CCC(=O)O)c2ccc(cc2)Cc2ccc(cc2)N(C(=O)CCC(=O)O)CC2CCC(CC2)CN(C(=O)CCC(=O)O)c2ccc(cc2)Cc2ccc1cc2 [Compound 23, N, N′, N″, N′″-Tetra (3-carboxypropionyl)-3,4,5,6,7,8,26,27,28,29,30,31-dodecahydro-1,10,24,33-tetraaza[2.2.1.2.2.1]paracyclophane] | – | – | 90% | 58 µM | Reversal of the neuromuscular blocking action of rocuronium (in words) [3]: efficiently blocked |
| carboxyethyl-β-CD (DS = 3) [Compound 8] | 103 (2) μmol.kg^−1 | 42 (3) μmol.kg^−1 | – | – | Dose (ED50) producing 50% reversal of steady-state neuromuscular block [4]: 412 (2) μmol.kg^−1; Dose (ED50) producing 50% reversal of steady-state neuromuscular block [5]: 408 (2) μmol.kg^−1; Dose (ED50) producing 50% reversal of steady-state neuromuscular block [6]: 479 (2) μmol.kg^−1 |
| carboxymethyl-β-CD (DS 3–3.5) [Compound 7] | – | 139 (3) μmol.kg^−1 | – | – | – |
| carboxymethyl-β-CD (DS = 3.5) [Compound 2] | 800 (1) μmol.kg^−1 | 134 (2) μmol.kg^−1 | – | – | – |
| cyclo[(1–4)-α-L-rhamnopyranosyl-(1–4)-α-D-mannopyranosyl]-tetraoside [Compound 24] | – | – | 86% | 288 µM | Reversal of the neuromuscular blocking action of rocuronium (in words) [3]: efficiently blocked; Reversal of the neuromuscular blocking action of rocuronium (in words) ([3]; listed as cyclo-[(1–4)-α-L-rhamno-pyranosyl-(1–4)-α-D-mannopyranosyl]tetraoside): effective |
| per 2,6-dimethyl-β-CD (DS = 12.6) [Compound 4] | 1313 (4) μmol.kg^−1 | 70 (2) μmol.kg^−1 | – | – | – |
| β-cyclodextrin-phosphate sodium salt (DS = 3) [Compound 5] | – | 280 (3) μmol.kg^−1 | – | – | – |
| β-cyclodextrin-phosphate sodium salt (DS = 8) [Compound 6] | – | 120 (2) μmol.kg^−1 | – | – | – |
| γ-cyclodextrin-phospate sodium salt (DS = 7) [Compound 12] | – | 52 (2) μmol.kg^−1 | 17% | 360 µM | – |

From patent US7265099B1, “Use of chemical chelators as reversal agents for drug-induced neuromuscular block” (Organon N.V., priority 1999, dated 2007)
